# Experimental data published in paper PMC8653295 (Chemistry (Weinheim an Der Bergstrasse, Germany), 2021).
# Where “and” joins values, the source holds several entries; their conditions need not be identical. Equal values may be shown once. Entries after “also recorded” stand apart in the source; their conditions may differ.
# Legend:
# [1] = target: interaction of the RBD of the SARS‐CoV‐2 S protein with the ACE2 receptor (Severe acute respiratory syndrome coronavirus 2, UniProt P0DTC2); assay type: binding; details: for inhibition of the S/ACE2 interaction: 20 µM
# SARS‐CoV PL^pro = SARS‐CoV PL^pro (Severe acute respiratory syndrome coronavirus, UniProt P0C6X7); experiment: biochemical; assay type: biochemical; details: for inhibition of SARS-CoV PLpro: 10 µM
# SARS‐CoV‐2 PL^pro = SARS‐CoV‐2 PL^pro (Severe acute respiratory syndrome coronavirus 2, UniProt P0DTD1); experiment: biochemical; assay type: biochemical; details: for inhibition of SARS-CoV-2 PLpro: 1 µM
# SARS‐CoV‐2 = assay type: cell-based
molecule,measurement,setting,value
CCn1[c]([Au-][Cl])[n+](CC)c2cc(C(=O)OC)ccc21 [Au‐12],inhibition of the S/ACE2 interaction,[1],19%
same,IC50,SARS‐CoV PL^pro,330 ± 110 nM
same,IC50,SARS‐CoV‐2 PL^pro,1100 ± 60 nM
same,antiviral effect against SARS‐CoV‐2 replication (in words),SARS‐CoV‐2,at 6.25 and 25 μM concentrations efficiently inhibited; also recorded: antiviral activity starting at low micromolar concentrations
"O=C(O)CC([S-])C(=O)O.[Au+] (stereo not drawn) [Au‐2, aurothiomalate, reference compound]",inhibition of the S/ACE2 interaction,[1],18%
same,IC50,SARS‐CoV PL^pro,690 ± 200 nM
same,IC50 SARS‐CoV PL^pro,SARS‐CoV PL^pro,Submicromolar
same,inhibition of SARS-CoV PLpro,SARS‐CoV PL^pro,91% and > 50%
same,IC50,SARS‐CoV‐2 PL^pro,600 ± 250 nM
same,IC50 SARS‐CoV‐2 PL^pro,SARS‐CoV‐2 PL^pro,Submicromolar
same,inhibition of SARS-CoV-2 PLpro,SARS‐CoV‐2 PL^pro,64% and > 50%
same,antiviral effect against SARS‐CoV‐2 replication (in words),SARS‐CoV‐2,not active
same,concentration up to which no significant cytotoxic effects / tolerated well,Caco‐2 cells,≥ 500 µM
same,concentration up to which no significant cytotoxic effects / tolerated well,CaLu‐3 cells,≥ 500 µM
Rb5.5Na4.5[{(p‐tolyl)Sb}4(PW9O34)2] ⋅ 40H2O [POM‐6],inhibition of the S/ACE2 interaction,[1],91%
same,inhibition of SARS-CoV PLpro,SARS‐CoV PL^pro,80%
same,inhibition of SARS-CoV-2 PLpro,SARS‐CoV‐2 PL^pro,58%
same,cytotoxicity (in words),Caco‐2 cells,strongly toxic
same,cytotoxicity (in words),CaLu‐3 cells,strongly toxic
Rb6Na6[{(p‐tolyl)Sb}4(GeW9 O34)2] ⋅ 40H2O [POM‐7],inhibition of the S/ACE2 interaction,[1],98%
same,inhibition of SARS-CoV PLpro,SARS‐CoV PL^pro,92%
same,inhibition of SARS-CoV-2 PLpro,SARS‐CoV‐2 PL^pro,67%
same,cytotoxicity (in words),Caco‐2 cells,strongly toxic
same,cytotoxicity (in words),CaLu‐3 cells,strongly toxic
CO[C@H]1O[C@H](CNC(=O)C2CCN(C(=S)[S-])CC2)[C@@H](O)[C@H](O)[C@H]1O.[Au+3].[Br-].[Br-] [Au‐33],inhibition of the S/ACE2 interaction,[1],10%
same,IC50,SARS‐CoV PL^pro,1040 ± 270 nM
same,inhibition of SARS-CoV PLpro,SARS‐CoV PL^pro,78%
same,IC50,SARS‐CoV‐2 PL^pro,210 ± 40 nM
same,inhibition of SARS-CoV-2 PLpro,SARS‐CoV‐2 PL^pro,99%
same,antiviral effect against SARS‐CoV‐2 replication (in words),SARS‐CoV‐2,inactive at low dosages; also recorded: completely blocked SARS‐CoV‐2 at 500 μM; also recorded: strongly blocked viral replication at a high dosage of 500 μM
same,concentration up to which no significant cytotoxic effects / tolerated well,Caco‐2 cells,≥ 500 µM
same,concentration up to which no significant cytotoxic effects / tolerated well,CaLu‐3 cells,≥ 500 µM
CO[C@H]1O[C@H](CO)[C@@H](O)[C@H](O)[C@H]1NC(=O)C1CCN(C(=S)[S-])CC1.[Au+3].[Br-].[Br-] [Au‐34],inhibition of the S/ACE2 interaction,[1],15%
same,IC50,SARS‐CoV PL^pro,1150 ± 340 nM
same,inhibition of SARS-CoV PLpro,SARS‐CoV PL^pro,86%
same,IC50,SARS‐CoV‐2 PL^pro,90 ± 40 nM
same,inhibition of SARS-CoV-2 PLpro,SARS‐CoV‐2 PL^pro,98%
same,antiviral effect against SARS‐CoV‐2 replication (in words),SARS‐CoV‐2,inactive at low dosages; also recorded: completely blocked SARS‐CoV‐2 at 500 μM; also recorded: strongly blocked viral replication at a high dosage of 500 μM
same,concentration up to which no significant cytotoxic effects / tolerated well,Caco‐2 cells,≥ 500 µM
same,concentration up to which no significant cytotoxic effects / tolerated well,CaLu‐3 cells,≥ 500 µM
"CCC(CC)COC(=O)[C@H](C)N[P@](=O)(OC[C@H]1O[C@@](C#N)(c2ccc3c(N)ncnn23)[C@H](O)[C@@H]1O)Oc1ccccc1 [Remdesivir, remdesivir, reference compound]",antiviral effect against SARS‐CoV‐2 replication (in words),SARS‐CoV‐2,efficiently inhibited viral replication at low micromolar concentrations
"[Cl-].[Cl-].[Ti+4].c1cc[cH-]c1.c1cc[cH-]c1 [Ti‐1, titanocene dichloride, reference compound]",inhibition of the S/ACE2 interaction,[1],69%
same,IC50,[1]; read-out: IC50 as inhibitors of the S/ACE2 interaction,3900 ± 300 nM
same,activity against SARS‐CoV PL^pro (in words),SARS‐CoV PL^pro,inactive
same,inhibition of SARS-CoV PLpro,SARS‐CoV PL^pro,6%
same,activity against SARS‐CoV‐2 PL^pro (in words),SARS‐CoV‐2 PL^pro,inactive
same,inhibition of SARS-CoV-2 PLpro,SARS‐CoV‐2 PL^pro,-13%
same,antiviral effect against SARS‐CoV‐2 replication (in words),SARS‐CoV‐2,active at 125 and 500 μM; also recorded: strongly blocked viral replication at a high dosage of 500 μM
same,concentration at which antiviral effects were shown,SARS‐CoV‐2,higher than 100 μM
same,concentration up to which no significant cytotoxic effects / tolerated well,Caco‐2 cells,≥ 500 µM
same,concentration up to which no significant cytotoxic effects / tolerated well,CaLu‐3 cells,≥ 500 µM
[Pd16Na2O26 (OH)3Cl3((CH3)2As)8] ⋅ 0.25Na(CH3)2AsO2 ⋅ 17H2O [POM‐11],inhibition of the S/ACE2 interaction,[1],75%
same,inhibition of SARS-CoV PLpro,SARS‐CoV PL^pro,100%
same,inhibition of SARS-CoV-2 PLpro,SARS‐CoV‐2 PL^pro,85%
same,antiviral effect against SARS‐CoV‐2 replication (in words),SARS‐CoV‐2,antiviral activity starting at low micromolar concentrations
same,concentration at which antiviral effects were shown,SARS‐CoV‐2,50 µM
same,concentration up to which no significant cytotoxic effects / tolerated well,Caco‐2 cells,≥ 200 µM
same,concentration up to which no significant cytotoxic effects / tolerated well,CaLu‐3 cells,≥ 200 µM
Na12[SnO8Pd12(PO4)8] ⋅ 43H2O [POM‐2],inhibition of the S/ACE2 interaction,[1],50%
same,inhibition of SARS-CoV PLpro,SARS‐CoV PL^pro,100%
same,inhibition of SARS-CoV-2 PLpro,SARS‐CoV‐2 PL^pro,66%
same,concentration up to which no significant cytotoxic effects / tolerated well,Caco‐2 cells,≥ 200 µM
same,concentration up to which no significant cytotoxic effects / tolerated well,CaLu‐3 cells,≥ 200 µM
